# Test results from PubChem BioAssay (NCI).
#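 How tested: cells in 96-well plates exposed to compound for 48 hours at five concentrations. TGI is the concentration that stops growth completely.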
# Columns and labels:
# Assay in all cases: growth of human tumour cells (NCI), 48 h
# 786-0 renal = test system: 786-0 renal
# A549 NSCLC = test system: A549 NSCLC
# ACHN renal = test system: ACHN renal
# CCRF-CEM leukemia = test system: CCRF-CEM leukemia
# COLO 205 colon = test system: COLO 205 colon
# DLD-1 colon = test system: DLD-1 colon
# DMS 114 small cell lung = test system: DMS 114 small cell lung
# DMS 273 small cell lung = test system: DMS 273 small cell lung
# EKVX NSCLC = test system: EKVX NSCLC
# HCC-2998 colon = test system: HCC-2998 colon
# HCT-116 colon = test system: HCT-116 colon
# HCT-15 colon = test system: HCT-15 colon
# HL-60(TB) leukemia = test system: HL-60(TB) leukemia
# HOP-62 NSCLC = test system: HOP-62 NSCLC
# HT29 colon = test system: HT29 colon
# IGROV1 ovarian = test system: IGROV1 ovarian
# K-562 leukemia = test system: K-562 leukemia
# KM12 colon = test system: KM12 colon
# KM20L2 colon = test system: KM20L2 colon
# LOX IMVI melanoma = test system: LOX IMVI melanoma
# LXFL 529 NSCLC = test system: LXFL 529 NSCLC
# M14 melanoma = test system: M14 melanoma
# M19-MEL melanoma = test system: M19-MEL melanoma
# MOLT-4 leukemia = test system: MOLT-4 leukemia
# NCI-H226 lung = test system: NCI-H226 lung
# NCI-H460 lung = test system: NCI-H460 lung
# NCI-H522 lung = test system: NCI-H522 lung
# OVCAR-3 ovarian = test system: OVCAR-3 ovarian
# OVCAR-4 ovarian = test system: OVCAR-4 ovarian
# OVCAR-8 ovarian = test system: OVCAR-8 ovarian
# RXF 393 renal = test system: RXF 393 renal
# SF-268 CNS = test system: SF-268 CNS
# SF-295 CNS = test system: SF-295 CNS
# SF-539 CNS = test system: SF-539 CNS
# SK-MEL-2 melanoma = test system: SK-MEL-2 melanoma
# SK-MEL-28 melanoma = test system: SK-MEL-28 melanoma
# SK-MEL-5 melanoma = test system: SK-MEL-5 melanoma
# SN12C renal = test system: SN12C renal
# SNB-19 CNS = test system: SNB-19 CNS
# SNB-78 CNS = test system: SNB-78 CNS
# SR leukemia = test system: SR leukemia
# SW-620 colon = test system: SW-620 colon
# TK-10 renal = test system: TK-10 renal
# U251 CNS = test system: U251 CNS
# UACC-62 melanoma = test system: UACC-62 melanoma
# UO-31 renal = test system: UO-31 renal
# XF 498 CNS = test system: XF 498 CNS
# A498 renal = test system: A498 renal
# BT-549 breast = test system: BT-549 breast
# CAKI-1 renal = test system: CAKI-1 renal
# DU-145 prostate = test system: DU-145 prostate
# HOP-92 NSCLC = test system: HOP-92 NSCLC
# HS 578T breast = test system: HS 578T breast
# MALME-3M melanoma = test system: MALME-3M melanoma
# MCF7 breast = test system: MCF7 breast
# MDA-MB-435 = test system: MDA-MB-435
# NCI-H23 lung = test system: NCI-H23 lung
# OVCAR-5 ovarian = test system: OVCAR-5 ovarian
# RPMI-8226 leukemia = test system: RPMI-8226 leukemia
# SK-OV-3 ovarian = test system: SK-OV-3 ovarian
# SNB-75 CNS = test system: SNB-75 CNS
# T-47D breast = test system: T-47D breast
# UACC-257 melanoma = test system: UACC-257 melanoma
compound,measurement,setting,value
CN(C)CCNC(=O)c1ccc(Cl)c2c(Nc3ccc(S(=O)(=O)N=C(N)N)cc3)c3ccccc3nc12,TGI,786-0 renal,35 µM
same,TGI,A549 NSCLC,17.2 µM
same,TGI,ACHN renal,18 µM
same,TGI,CCRF-CEM leukemia,16.9 µM
same,TGI,COLO 205 colon,17.9 µM
same,TGI,DLD-1 colon,18.4 µM
same,TGI,DMS 114 small cell lung,7.98 µM
same,TGI,DMS 273 small cell lung,8.63 µM
same,TGI,EKVX NSCLC,27.5 µM
same,TGI,HCC-2998 colon,21.3 µM
same,TGI,HCT-116 colon,17.8 µM
same,TGI,HCT-15 colon,18.6 µM
same,TGI,HL-60(TB) leukemia,6.27 µM
same,TGI,HOP-62 NSCLC,26.4 µM
same,TGI,HT29 colon,10.3 µM
same,TGI,IGROV1 ovarian,18.5 µM
same,TGI,K-562 leukemia,16.9 µM
same,TGI,KM12 colon,20.7 µM
same,TGI,KM20L2 colon,19.2 µM
same,TGI,LOX IMVI melanoma,5.5 µM
same,TGI,LXFL 529 NSCLC,18.4 µM
same,TGI,M14 melanoma,53.6 µM
same,TGI,M19-MEL melanoma,17.3 µM
same,TGI,MOLT-4 leukemia,2.66 µM
same,TGI,NCI-H226 lung,6.67 µM
same,TGI,NCI-H460 lung,10.2 µM
same,TGI,NCI-H522 lung,3.79 µM
same,TGI,OVCAR-3 ovarian,30.6 µM
same,TGI,OVCAR-4 ovarian,5.24 µM
same,TGI,OVCAR-8 ovarian,15.2 µM
same,TGI,RXF 393 renal,19.3 µM
same,TGI,SF-268 CNS,19.7 µM
same,TGI,SF-295 CNS,15.2 µM
same,TGI,SF-539 CNS,14.7 µM
same,TGI,SK-MEL-2 melanoma,24.5 µM
same,TGI,SK-MEL-28 melanoma,26.6 µM
same,TGI,SK-MEL-5 melanoma,25.5 µM
same,TGI,SN12C renal,16.6 µM
same,TGI,SNB-19 CNS,6.6 µM
same,TGI,SNB-78 CNS,48.1 µM
same,TGI,SR leukemia,9.06 µM
same,TGI,SW-620 colon,14.9 µM
same,TGI,TK-10 renal,38.7 µM
same,TGI,U251 CNS,16.4 µM
same,TGI,UACC-62 melanoma,20.3 µM
same,TGI,UO-31 renal,3.23 µM
same,TGI,XF 498 CNS,27.1 µM
O=C(Nc1cccc(C(F)(F)F)c1)C(=O)C(C(=O)c1ccc2ccccc2c1)C1OC(=O)c2ccccc21 (stereo not given),TGI,786-0 renal,15.9 µM
same,TGI,A498 renal,20.3 µM
same,TGI,A549 NSCLC,78.3 µM
same,TGI,ACHN renal,73.5 µM
same,TGI,BT-549 breast,93.9 µM
same,TGI,CAKI-1 renal,> 100 µM
same,TGI,CCRF-CEM leukemia,29.1 µM
same,TGI,COLO 205 colon,38.9 µM
same,TGI,DLD-1 colon,23.4 µM
same,TGI,DMS 114 small cell lung,17.1 µM
same,TGI,DMS 273 small cell lung,> 100 µM
same,TGI,DU-145 prostate,81.2 µM
same,TGI,EKVX NSCLC,27.5 µM
same,TGI,HCC-2998 colon,23.5 µM
same,TGI,HCT-116 colon,21.2 µM
same,TGI,HCT-15 colon,32.2 µM
same,TGI,HL-60(TB) leukemia,40.9 µM
same,TGI,HOP-62 NSCLC,36.8 µM
same,TGI,HOP-92 NSCLC,> 100 µM
same,TGI,HS 578T breast,45.2 µM
same,TGI,HT29 colon,38.2 µM
same,TGI,IGROV1 ovarian,71.6 µM
same,TGI,K-562 leukemia,> 73.7 µM
same,TGI,KM12 colon,29 µM
same,TGI,KM20L2 colon,33.5 µM
same,TGI,LOX IMVI melanoma,20.7 µM
same,TGI,LXFL 529 NSCLC,20.8 µM
same,TGI,M14 melanoma,34.4 µM
same,TGI,M19-MEL melanoma,31.1 µM
same,TGI,MALME-3M melanoma,17 µM
same,TGI,MCF7 breast,45.8 µM
same,TGI,MDA-MB-435,> 100 µM
same,TGI,MOLT-4 leukemia,11.1 µM
same,TGI,NCI-H226 lung,11.5 µM
same,TGI,NCI-H23 lung,17.7 µM
same,TGI,NCI-H460 lung,36.3 µM
same,TGI,NCI-H522 lung,25.6 µM
same,TGI,OVCAR-3 ovarian,55.6 µM
same,TGI,OVCAR-4 ovarian,> 42.7 µM
same,TGI,OVCAR-5 ovarian,31.5 µM
same,TGI,OVCAR-8 ovarian,35.6 µM
same,TGI,RPMI-8226 leukemia,60.6 µM
same,TGI,RXF 393 renal,11.9 µM
same,TGI,SF-268 CNS,49.1 µM
same,TGI,SF-295 CNS,23.4 µM
same,TGI,SF-539 CNS,10.2 µM
same,TGI,SK-MEL-2 melanoma,15.8 µM
same,TGI,SK-MEL-28 melanoma,15.7 µM
same,TGI,SK-MEL-5 melanoma,24.4 µM
same,TGI,SK-OV-3 ovarian,> 100 µM
same,TGI,SN12C renal,36.9 µM
same,TGI,SNB-19 CNS,25.8 µM
same,TGI,SNB-75 CNS,30.6 µM
same,TGI,SNB-78 CNS,26.6 µM
same,TGI,SR leukemia,16 µM
same,TGI,SW-620 colon,37 µM
same,TGI,T-47D breast,84.8 µM
same,TGI,TK-10 renal,48 µM
same,TGI,U251 CNS,17.4 µM
same,TGI,UACC-257 melanoma,15.9 µM
same,TGI,UACC-62 melanoma,19.1 µM
same,TGI,UO-31 renal,20.6 µM
same,TGI,XF 498 CNS,12.3 µM
